In patent publication US12150775B2, “Treatment of a disease of the gastrointestinal tract with an immunosuppressant” (BIORA THERAPEUTICS, INC., priority 2016, dated 2024):

Assay: Tissue, plasma and GI content pharmacokinetics of tacrolimus, oral vs intra-cecal ingestible device delivery
Type: in vivo, Yorkshire-Cross farm swine
Conditions: swine; intra-cecally vs orally administered, 12 hours post-dose (FIG. 76)
Procedure: No further randomization procedure was employed.
Animals in Group 1 received an ingestible device containing 0.8 mL of vehicle solution (80% alcohol, 20% HCO-60). Animals in Group 2 received orally […] liquid formulation of tacrolimus at 4 mg/0.8 mL per animal (Prograf. 5 mg/mL). Animals in Group 3 received intra-cecally an ingestible device containing tacrolimus at 1 mg in 0.8 mL per ingestible device. Animals in Group 4 received intra-cecally an ingestible device containing tacrolimus at 2 mg in 0.8 mL per ingestible device. Animals in Group 5 received intra-cecally an ingestible device containing tacrolimus at 4 mg in 0.8 mL per ingestible device. […]
Approximately 200˜400 mg of rectal content were collected, if available, with a fecal swab (Copan Diagnostics Nylon Flocked Dry Swabs, 502CS01). The fecal swab was pre-weighed and weighed after collection in the collection tube (Sterile Tube and Cap No Media, PFPM913S), and the sample weight was recorded. […]
For tissue necropsy, small intestine fluid and cecal fluid were collected separately from all the animals into two separate square plastic bottles, and stored at −20° C. The length and diameter of the cecum and the colon was measured from one animal in each group and recorded for reference. […] All samples were weighed, and the tissue sample weights were recorded. […]

mean concentration of tacrolimus in the cecum tissue: higher
mean concentration of tacrolimus in the proximate colon tissue: higher
Compound: C=CC[C@@H]1/C=C(\C)C[C@H](C)C[C@H](OC)[C@H]2O[C@@](O)(C(=O)C(=O)N3CCCC[C@H]3C(=O)O[C@H](/C(C)=C/[C@@H]3CC[C@@H](O)[C@H](OC)C3)[C@H](C)[C@@H](O)CC1=O)[C@H](C)C[C@@H]2OC [tacrolimus, Tacrolimus]
